This is an account of results in paper PMC11335710 (GeroScience, 2024).

Series [1] relates to SH-SY5Y human neuroblastoma cells. In words: 6-OHDA-mediated cell loss in SH-SY5Y cells (TOPRO-3 cell density). The class given is cell-based. The following applies: 6-OHDA 100 µM 2 h, GLP-1 or GIP 10 nM, DPP-4 inhibitor 1 µM, read at 24 h.
Experimental: Five minutes later, the cells were treated with vehicle or freshly prepared 6-OHDA (100 µM) for 2 h. GIP, GLP-1, and DPP-4 inhibitor or vehicle were added to the media again after three washes. […] The cells were then washed in PBS for three times and, thereafter, were imaged using a Licor Odyssey IR scanner. Cell density in each well was analyzed by using Licor Odyssey In Cell Western analyses software v 3.0, as previously described [45].
In our study, TOPRO-3 was applied to cells after fixation with 4% PFA. The cells were washed in PBS for three times and, thereafter, were imaged using a Licor Odyssey IR scanner. Under these conditions, it is likely that any dead cells were washed away before quantifying fluorescence.
Series [2] concerns rat primary ventral mesencephalic cultures. In words: 6-OHDA toxicity in rat primary ventral mesencephalic cultures (TH cell density). The following applies: rat primary VM cultures, 6-OHDA 100 µM 2 h; for Effect of co-administered DPP-4 inhibitor on protective response of GIP and GLP-1 (TH cell density): PF-00734,200 1 µM with GLP-1 or GIP 10 nM; for Effect on 6-OHDA-mediated reduction in TH cell density: GLP-1 or GIP 10 nM, fixed 22 h after washing. The class given is cell-based. An excerpt: Primary cultures were generated from embryonic (E14-15) ventral mesencephalon (VM) brain tissue removed from fetuses of timed-pregnant Sprague–Dawley rats (Charles River Laboratories, Wilmington, MA), in line with published procedures with minor modifications. Briefly, the whole brain was removed aseptically, and a small piece of tissue containing the VM was separated. Blood vessels and meninges were detached, and remaining pooled VM tissues were gently trypsinized (0.25% (Invitrogen, Carlsbad, CA), 15 min at 37°C). Trypsin was removed with pre-warmed DMEM/F-12 (Invitrogen), and cells were dissociated by trituration and then counted and plated into 96-well (6.0 × 10^4/well) cell culture plates that were pre-coated with poly-D-lysine (Sigma-Aldrich). The culture plating medium was Dulbecco’s modified Eagle medium/F12 supplemented with 10% heat-inactivated fetal bovine serum, 1 mM L-glutamine, and 2% B27 (Invitrogen). VM cells were maintained at 37°C in a humidified atmosphere (5% CO2 and 95% air) and fed by exchanging 50% of media with feed media (Neurobasal medium, Invitrogen) with 0.5 mM L-glutamate and 2% B27 with antioxidants supplement on DIV (days in vitro) 3 and 5. On DIV7, VM cultures were fed with media containing B27 supplement minus antioxidants (Invitrogen). Thereafter, freshly prepared 6-OHDA (100 µM in 20 µM ascorbic acid saline solution) or saline (with 20 µM ascorbic acid) was added to the wells on DIV 10. Following 2-h incubation, cultures were washed with feed media plus ( −) AO B27 three times. DPP-4 inhibitor (PF-00734,200), incretins, or vehicle was added to the well at the last wash as a post-treatment strategy. Cells were returned to a 37°C incubator for 22 h and then fixed with 4% paraformaldehyde (PFA) for immunoreactivity evaluation.

Series [3] deals with 6-OHDA lesioned rats. The following applies: rats with unilateral medial forebrain bundle 6-OHDA lesion; cited from earlier work.
Series [4] can be described thus: Plasma sitagliptin pharmacokinetics in nonhuman primates (LC-MS, noncompartmental analysis). As to the method:
Animals included Macaca mulatta of 7 to 20 kg weight, mixed gender, 12 to 19 years of age (n = 5 to 7 per group). […] Commercially prepared monkey chow was distributed twice per day along with daily food enrichment, and water was available ad libitum. Monkeys were observed daily for food consumption and overall well-being.
(§1) Immediately thereafter, an oral glucose tolerance test was performed to stimulate incretin secretion. This is designated as time zero (i.e., 0) in Figs. 2, 4 and 5.
(§2) Further samples were collected without the inhibitor for DPP-4 analysis to permit quantification of DPP-4 inhibition. Incretin levels were measured with the following assays: Active GLP-1 ((ver 2 kit) Meso Scale Diagnostic), Active GIP (ELISA kit—IBL America), DPP-4 activity was evaluated by fluorometric assay using a DPPIV/CD26 assay kit for biological samples ((BML-AK498-0001) Enzo Life Sciences, Farmingdale, NY).
A noncompartmental approach to pharmacokinetic analysis was employed using Phoenix WinNonlin v8.3 (Certara Corp, Cary, NC). The maximum plasma concentration (Cmax) and the time of maximum plasma concentration (Tmax) were recorded as observed values. […] AUCINF (the AUC from time zero to infinity) was calculated by extrapolation by dividing Clast (the last measurable drug concentration) by the rate constant of the terminal phase, lZ (Kel). This constant was determined from the slope of the terminal phase of the concentration–time curve using uniformly weighted least squares as the estimation procedure and acceptance criteria of (i) adjusted r^2 > 0.8 and (ii) includes > 3 time points in the terminal phase.

Series [5] concerns GLP-1 and GIP. Description: CSF GLP-1 and GIP levels in NHPs (both incretins, summary in text). The class given is in vivo, Macaca mulatta. The following applies: CSF at 3 and 5 h after day 6 sitagliptin, NHP. The method, then: as §1, §2
On the set-up of series [6]: method as in Reference 33 within 44. The following applies: Merck's data on file; ref Reference 33 within 44; cited from earlier work.
For series [7] the following is noted: cited from earlier work.
Series [8] deals with p-glycoprotein. The following applies: in relation to renal clearance; cited from earlier work.
In series [9] the test system is organic anion transporter 3 (hOAT3). The following applies: in relation to renal clearance; cited from earlier work.
Series [10] in a line: in vivo. The following applies: both, Macaca mulatta.
[11] abbreviates: both, rhesus monkey, in vivo, po, 5 mg/kg.
[12] abbreviates: both, rhesus monkey, in vivo, po, 20 mg/kg.
Where [13] appears, read: both, rhesus monkey, in vivo, po, 100 mg/kg.

Entries after “also recorded” stand apart in the source; their conditions may differ. Ends that are not written are not given here.

Regarding `O=C([C@@H]1C[C@H](N2CCN(c3ncccn3)CC2)CN1)N1CCC(F)(F)C1` [PF-00734,200, gosogliptin], the “Effect on 6-OHDA-mediated cell loss (TOPRO-3 fluorescence cell density)” value (shortened to “Effect on 6-OHDA-mediated cell loss”) was “ameliorated” in [1] (listed as DPP-4I) and “partially mitigated” in series [1] (listed as DPP-4 inhibitor). For the same compound, the “Effect of co-administered DPP-4 inhibitor on protective response of GIP and GLP-1 (TH cell density)” value was “significantly potentiated” in series [2] and “further reduced” in series [2] (listed as DPP-4I). Besides, in series [3], the “Effect on dopaminergic neurons, dopamine levels and methamphetamine-mediated rotation” value is “mitigated the loss of dopaminergic neurons and dopamine levels”.

Broadly, the Tmax is the time from dosing to the highest level. The term AUC(0-inf) denotes the area under the concentration-time curve extrapolated to infinity. A low value points to low exposure. The AUC(0-t) is exposure summed from dosing to a finite time, without extrapolation to infinity. A higher AUC(0-t) goes with more exposure. As usually defined, the Cmax is the maximum level reached in the sampled fluid or tissue. As usually defined, the half-life is the time needed for the level to fall by half in the phase considered. A high value points to slow decline. What is called log P is the decadic logarithm of the partition coefficient of the neutral form, usually between octanol and water. `N[C@@H](CC(=O)N1CCn2c(nnc2C(F)(F)F)C1)Cc1cc(F)c(F)cc1F` [sitagliptin]: the Tmax in series [4] (20 mg/kg oral once daily, day 6, NHP plasma) is given as 2 h. Further, the time of peak concentration (Tmax) in series [4] (both, Macaca mulatta, in vivo, po) is 2 h. Also, in series [4] (setting [11]), the AUC(0-inf) stood at 8.81 µM·h, the AUC(0-t) worked out at 7.83 µM·h, the highest level (Cmax) was 0.768 µM and the half-life came out at 8.4 h. Moreover, the k el in series [4] (setting [11]) was 2.28e-05 s⁻¹. Further, in [4] (setting [12]), the AUC(0-inf) was determined as 50.9 µM·h, the AUC(0-t) was 49.6 µM·h, the Cmax was 7.06 µM and the half-life is 5 h. The compound further had a k el in series [4] (setting [12]) of 3.87e-05 s⁻¹. Moreover, in series [4] (setting [13]), the area under the curve AUC(0-inf) turned out to be 214 µM·h, the AUC(0-t) was 193 µM·h, the peak level (Cmax) was 13.7 µM and the time of peak concentration (Tmax) lay in the range of 2 to 8 h. Besides, in series [4] (setting [13]), the half-life was 6.7 h and the k el is 2.85e-05 s⁻¹. The compound also registered a maximum concentration (Cmax) in series [4] (both, rhesus, Macaca mulatta, in vivo, po, 5 mg/kg) of 0.768 µM. Further, the “Elevation of CSF levels of GLP-1 and GIP vs placebo” value in series [5] was 2.0- to 3.4 fold. Besides, the “Maximally well-tolerated sitagliptin dose in NHPs” value in [6] is on record as 100 mg/kg. In series [7], the “log P” value was 1.5. Moreover, the Substrate for p-glycoprotein result in [8] was “substrate”. Besides, the “Substrate for organic anion transporter 3 (hOAT3)” value in [9] is “substrate”. The “Effect on dopaminergic neurons, dopamine levels and methamphetamine-mediated rotation” value in series [3] was “mitigated the loss of dopaminergic neurons and dopamine levels”. Further, in series [10], the Kp at 3 h was 0.01 and the Kp at 5 h was found to be 0.01.

For “glucagon-like peptide-1 (HAEGTFTSDVSSYLEGQAAKEFIAWLVKGR; ends and bridges not checked; UniProt P01275 98-127, looked up) [GLP-1, endogenous incretin hormone added to cultures at 10 nM]”, the “Effect on 6-OHDA-mediated cell loss” value in series [1] is “partially mitigated; also recorded: ameliorated”. Further, the “Effect on 6-OHDA-mediated reduction in TH cell density” value in series [2] was “partially but significantly mitigated”; in series [2] (listed as GLP‐1) it was “significant amelioration”.

For “glucose-dependent insulinotropic polypeptide [GIP]”, the “Effect on 6-OHDA-mediated cell loss” value in series [1] is reported as “significantly antagonized; also recorded: ameliorated; also recorded: fully protected against cell loss”. In series [2], the “Effect on 6-OHDA-mediated reduction in TH cell density” value is “partially but significantly mitigated; also recorded: significant amelioration”.
